Values quoted from earlier work as cited in US20200338016A1, “COMBINATION BROAD-SPECTRUM ANTIBIOTIC PREPARATIONS FOR DRUG-RESISTANT PATHOGENS” (priority 2019, published 2020).

Test system: Mycobacterim tuberculosis
Conditions: ten strains of Mycobacterim tuberculosis, including six resistant to antibiotics

SMILES | concentration that kills [micrograms per milliliter]
O=C(O[C@@H]1Cc2c(O)cc(O)cc2O[C@@H]1c1cc(O)c(O)c(O)c1)c1cc(O)c(O)c(O)c1 [EGCG, epigallocatechin gallate] | 1024
O=C(O)/C=C/c1ccc(O)c(O)c1 [caffeic acid] | 1024
O=c1c(O)c(-c2ccc(O)c(O)c2)oc2cc(O)cc(O)c12 [quercetin] | 1024
